The subject of series [1] is Huh-7. Kind of series: Induction of autophagic flux in human Huh-7 cells assessed as increase in number of autophagic vesicles at 10 nM by transmission electron microscopic analysis. Format: functional, cell-based.
For series [2], the system named is Hep 3B2. In words: Induction of apoptosis in human Hep3B cells assessed as viable cells at 10 nM incubated for 48 hrs by Annexin V-FITC/PI staining based flow cytometry method (reference value: 94.0%). Format: functional. As to conditions: read-out: Activity.
The subject of series [3] is Huh-7. In words: Induction of apoptosis in human Huh-7 cells assessed as early apoptotic cells at 10 nM incubated for 48 hrs by Annexin V-FITC/PI staining based flow cytometry method (reference value: 2.8%). Type of series: functional. On the technique in general: In flow cytometry, cells or beads pass a laser one at a time.
The test system of series [4] is Huh-7. In words: Induction of apoptosis in human Huh-7 cells assessed as viable cells at 10 nM incubated for 48 hrs in presence of gamabufotalin by Annexin V-FITC/PI staining based flow cytometry method (reference value: 91.5%). Format: functional. As to conditions: read-out: Activity.
Series [5] relates to Huh-7. Kind of series: Induction of apoptosis in human Huh-7 cells assessed as increase in bax level at 10 nM incubated for 48 hrs in presence of gamabufotalin by immunoblot analysis. Format: functional, cell-based. For orientation: A western blot detects proteins with antibodies after separation by electrophoresis.
In series [6] the test system is Hep 3B2. In words: Induction of autophagic flux in human Hep3B cells harbouring mCherry-egfp-LC3 assessed as reduction in number of red puncta ratio at 10 nM incubated for 15 mins in presence of gamabufotalin by laser scanning confocal microscopic analysis. Type of series: functional, cell-based.
Series [7] relates to Hep 3B2. Kind of series: Induction of apoptosis in human Hep3B cells assessed as viable cells at 15 nM incubated for 48 hrs by Annexin V-FITC/PI staining based flow cytometry method (reference value: 93.3%). Type of series: functional. To be noted: read-out: Activity.
Series [8] concerns Hep 3B2. In words: Induction of apoptosis in human Hep3B cells assessed as early apoptotic cells at 15 nM incubated for 48 hrs by Annexin V-FITC/PI staining based flow cytometry method (reference value: 3.9%). Format: functional.
Series [9] concerns Huh-7. In words: Induction of apoptosis in human Huh-7 cells assessed as late apoptotic cells at 15 nM incubated for 48 hrs by Annexin V-FITC/PI staining based flow cytometry method (reference value: 2.2%). Format: functional.
Series [10] concerns Hep 3B2. In words: Induction of apoptosis in human Hep3B cells assessed as […] level at upto 25 nM incubated for 48 hrs by Western blot analysis. Type of series: functional, cell-based.
The test system of series [11] is Hep 3B2. Kind of series: Induction of apoptosis in human Hep3B cells assessed as increase in cleaved caspase-3 expression at upto 25 nM incubated for 48 hrs by Western blot analysis. Format: functional, cell-based.
In series [12] the test system is Huh-7. In words: Induction of apoptosis in human Huh-7 cells assessed as necrotic cells at 25 nM measured after 48 hrs in presence of z-VAD-FMK by annexin V-FITC/Propidium iodide staining based flow cytometric analysis (reference value: 0.0%). Type of series: functional.
For series [13], the system named is Huh-7. Kind of series: Induction of autophagic flux in human Huh-7 cells harbouring mCherry-egfp-LC3 assessed as increase in yellow puncta at 25 nM incubated for 15 mins by laser scanning confocal microscopic analysis. Type of series: functional, cell-based.
Series [14] relates to Hep 3B2. Kind of series: Induction of autophagic flux in human Hep3B cells assessed as rescue of p62 at 25 uM incubated for 48 hrs in presence of chloroquine by Western blot analysis. Format: functional, cell-based.
In series [15] the test system is Hep 3B2. In words: Induction of apoptosis in human Hep3B cells assessed as late apoptotic cells at 25 nM incubated for 48 hrs in presence of chloroquine by Annexin V-FITC/PI staining based flow cytometry method (reference value: 3.5%). Format: functional.
In series [16] the test system is Huh-7. In words: Induction of apoptosis in human Huh-7 cells assessed as late apoptotic cells at 25 nM incubated for 48 hrs by Annexin V-FITC/PI staining based flow cytometry method (reference value: 4.7%). Type of series: functional.
Series [17] relates to Huh-7. Kind of series: Induction of apoptosis in human Huh-7 cells assessed as necrotic cells at 25 nM incubated for 48 hrs by Annexin V-FITC/PI staining based flow cytometry method (reference value: 1.0%). Type of series: functional.
Series [18] concerns Huh-7. Kind of series: Induction of apoptosis in human Huh-7 cells assessed as necrotic cells at 25 nM incubated for 48 hrs in presence of chloroquine by Annexin V-FITC/PI staining based flow cytometry method (reference value: 1.0%). Type of series: functional.
The subject of series [19] is Hep 3B2. In words: Induction of apoptosis in human Hep3B cells assessed as increase in PARP level at 25 nM incubated for 48 hrs in presence of chloroquine by immunoblot analysis. Format: functional, cell-based.
The test system of series [20] is Huh-7. Kind of series: Induction of apoptosis in human Huh-7 cells assessed as increase in cleaved caspase-3 level at 25 nM incubated for 48 hrs in presence of chloroquine by immunoblot analysis. Format: functional, cell-based.
The subject of series [21] is Hep 3B2. In words: Induction of apoptosis in human Hep3B cells assessed as early apoptotic cells at 25 nM incubated for 48 hrs in presence of 4,6-dimorpholino-N-(4-nitrophenyl)-1,3,5-triazin-2-amine by Annexin V-FITC/PI staining based flow cytometry method (reference value: 1.3%). Type of series: functional.
Series [22] relates to Hep 3B2. In words: Induction of apoptosis in human Hep3B cells assessed as late apoptotic cells at 25 nM incubated for 48 hrs in presence of 4,6-dimorpholino-N-(4-nitrophenyl)-1,3,5-triazin-2-amine by Annexin V-FITC/PI staining based flow cytometry method (reference value: 2.2%). Format: functional.
Series [23] has as its system Huh-7. Kind of series: Induction of apoptosis in human Huh-7 cells assessed as viable cells at 25 nM incubated for 48 hrs in presence of 4,6-dimorpholino-N-(4-nitrophenyl)-1,3,5-triazin-2-amine by Annexin V-FITC/PI staining based flow cytometry method (reference value: 90.0%). To be noted: read-out: Activity. Format: functional.
Series [24] concerns Huh-7. Kind of series: Induction of apoptosis in human Huh-7 cells assessed as late apoptotic cells at 25 nM incubated for 48 hrs in presence of 4,6-dimorpholino-N-(4-nitrophenyl)-1,3,5-triazin-2-amine by Annexin V-FITC/PI staining based flow cytometry method (reference value: 3.8%). Format: functional.
Series [25] relates to Hep 3B2. Kind of series: Induction of apoptosis in human Hep3B cells assessed as upregulation of cleaved caspase-3 level […] incubated for 48 hrs in presence of 4,6-dimorpholino-N-(4-nitrophenyl)-1,3,5-triazin-2-amine by immunoblot analysis. Type of series: functional, cell-based.
The subject of series [26] is Huh-7. Kind of series: Induction of apoptosis in human Huh-7 cells assessed as upregulation of PARP level […] incubated for 48 hrs in presence of 4,6-dimorpholino-N-(4-nitrophenyl)-1,3,5-triazin-2-amine by immunoblot analysis. Type of series: functional, cell-based.
In series [27] the test system is Huh-7. Kind of series: Induction of autophagy in human Huh-7 cells assessed as rescue of mTOR phosphorylation level at upto 25 nM incubated for 48 hrs in presence of chloroquine by immunoblot method. Type of series: functional, cell-based.
Series [28] deals with Hep 3B2. In words: Induction of autophagy in human Hep3B cells assessed as restoration of mTOR phosphorylation expression at 25 uM incubated for 48 hrs in presence of 4,6-dimorpholino-N-(4-nitrophenyl)-1,3,5-triazin-2-amine by immunoblot analysis. Type of series: functional, cell-based.
Series [29] concerns Hep 3B2. In words: Induction of autophagic flux in human Hep3B cells harbouring mCherry-egfp-LC3 assessed as reduction in number of yellow puncta ratio at 25 nM incubated for 15 mins in presence of chloroquine by laser scanning confocal microscopic analysis. Format: functional, cell-based.
In series [30] the test system is Hep 3B2. In words: Antitumor activity against human Hep3B cells xenografted in nude mouse model assessed as decrease in tumor volume at 5 mg/kg,ip administered every second day for 3 weeks by vernier caliper method. Type of series: functional, organism-based. On the technique in general: A xenograft is tissue or cells of one species grown in another, often human tumour cells in immunodeficient mice.

The test system of series [31] is Hep 3B2. In words: Antitumor activity against human Hep3B cells xenografted in nude mouse model assessed as decrease in tumor weight at 5 mg/kg,ip administered every second day for 3 weeks by vernier caliper method. Type of series: functional, organism-based.
A short description of series [32]: Toxicity in mouse assessed as effect on body weight at 5 mg/kg,ip administered every second day for 3 weeks. Format: organism-based. As to conditions: in vivo, 504 h.

Active and inactive are the calls of the source. The rule behind the calls is not given here.

Take `CCN(CC)CCCC(C)Nc1ccnc2cc(Cl)ccc12` (configuration not stated) [CHLOROQUINE]: the outcome in the series on Huh-7 [1], in the series on Huh-7 [5] and with Hep 3B2 [6] was Active. Also, the viability at 0.01 µM was found to be 93.6% with Hep 3B2 [2] and 65.4% in the series with Huh-7 [4]. For the same molecule, the Activity in the series with Huh-7 [3] came out at 2.9%.
Turning to `C[C@]12CC[C@H](O)C[C@H]1CC[C@@H]1[C@@H]2[C@H](O)C[C@]2(C)[C@@H](c3ccc(=O)oc3)CC[C@]12O` [GAMABUFOTALIN], in the series on Hep 3B2 [7], the viability at 0.015 µM is 88.2%. Besides, the Activity in the series with Hep 3B2 [8] is given as 6.8%; with Huh-7 [9], 24.4%; in the series with Huh-7 [12] it was 0.3%; with Hep 3B2 [15], 17.4%; in the series on Huh-7 [16], 10.2%; in the series on Huh-7 [17], 1.1%. In addition, the Activity in the series on Huh-7 [18] is reported as 3.4%; in the series on Hep 3B2 [21] it was 10.9%; in the series on Hep 3B2 [22], 20.2%; with Huh-7 [24], 6.6%; in series [32], “Non-Toxic”. The outcome in the series on Hep 3B2 [10], in the series with Hep 3B2 [11], with Huh-7 [13], in the series on Hep 3B2 [14], in the series on Hep 3B2 [19] and with Huh-7 [20] was Active. The outcome in the series with Hep 3B2 [25], in the series on Huh-7 [26], in the series with Huh-7 [27], in the series with Hep 3B2 [28], with Hep 3B2 [29] and in the series on Hep 3B2 [30] was Active. Besides, the outcome in the series on Hep 3B2 [31] was Active. In addition, the viability at 0.025 µM in the series with Huh-7 [23] was 76.8%.
